SMILES strings stand for the structures.

The text below walks through data of patent US7022315B2, “Administration of a thiol-based chemoprotectant compound” (Oregon Health & Science University, priority 2000, dated 2006).

In series [1] the test system is B.5 LX-1 cells. Put plainly: cells. Here is the method:
FIGS. 4A and 4B show cytoenhancement and chemoprotection. […] Cytotoxicity was assessed in cultured LX-1 SCLC cells, 1×10^4 cells per well in 96 well plates, using the WST colorometric assay. BSO cytoenhancement consisted of preincubation at 100 μM BSO for 18 hours. The chemoprotective agent was added immediately after chemotherapy. The experimental conditions were dose/responses for chemotherapy (carboplatin or etoposide phosphate) alone (m), BSO cytoenhancement ( ? ), N-acetylcysteine rescue, (1000 μg/ml N-acetylcysteine, n), or BSO cytoenhancement and N-acetylcysteine rescue (u). Data are expressed as the percentage of live cells compared to untreated control samples without chemotherapy and each point represents the mean±standard deviation of 4 wells.
The effects of BSO cytoenhancement and thiol chemoprotection on the dose/response relationships for cytotoxicity of the alkylating chemotherapeutics were evaluated in the B.5 LX-1 cells. BSO cytoenhancement consisted of preincubation with 100 μM BSO for about 18–24 hours prior to addition of chemotherapy, and rescue consisted of 1000–2000 μg/ml of thiol chemoprotectant added immediately after chemotherapy.
Cytoenhancement and chemoprotection against non-alkylating chemotherapeutic agents was also evaluated.
Half-maximal cytotoxic concentrations (EC50) are expressed as μg/ml. Each EC50 measurement comprised 6 concentrations with 4 wells per concentration, and each dose response was performed in triplicate for each chemotherapeutic agent. Data are reported as the mean±pooled standard deviation for three independent experiments. P values are shown for the reduction in EC50 by BSO treatment (*=P<0.05, **=P<0.01, ***=P<0.001).

Series [2] has as its system Caspase-2 activity in B.5 LX-1 cells. The experiment in a line: Caspase-2 enzymatic activity (apoptosis). It counts as cell-based. Here is the method: (§1) FIGS. 7A and 7B show the effect of cytoenhancement and chemoprotection on apoptosis. […] Apoptosis was assessed in cultured LX-1 SCLC cells pretreated for 18 hours with or without 100 μM BSO. The experimental conditions were no addition (open bars), melphalan (10 μg/ml, striped bars) or melphalan (10 μg/ml) plus N-acetylcysteine (1000 μg/ml) (cross hatched bars) for 20 h prior to harvest. Caspase-2 activity is expressed as percentage activity in untreated control samples (mean±standard deviation, n=3). TUNEL staining is expressed as the percentage of cells showing positive staining.
(§2) Apoptosis was evaluated by measuring Caspase-2 enzymatic activity and by in situ TUNEL staining. […] The increase in caspase activity was variable between experiments and ranged from 50–100% at 7–8 h to 250–600% at 20–24 h after treatment with melphalan. […] In the experiment shown in FIG. 7B, TUNEL staining after melphalan treatment was positive in 29 of 3643 cells, compared to 7 of 4395 cells in the untreated control, and BSO treatment prior to melphalan increased the positive staining to 800 of 1699 cells. […] In both assays, activity was maximal with low doses of melphalan, or with a 1 hour pulse treatment with the doses used in the cytotoxicity assays.
Samples of the cells used in the caspase and TUNEL assays were also evaluated for membrane permeability by trypan blue exclusion.

The test system of a further series is rat. The method, then:
FIG. 9 represents tests showing the effect of NAC route of administration on mortality+/−BSO. A Kaplan-Meier product limit analysis was used to evaluate the mortality due to chemoprotection with NAC. Rats were treated with or without BSO (10 mg/kg i.p. b.i.d.×3, black bars) prior to treatment with chemotherapy (Carboplatin 200 mg/m2, etoposide phosphate 100 mg/m2, melphalan 10 mg/m2). Chemoprotection consisted of NAC (1200 mg/m2) or NAC (1000 mg/m2) plus STS (8 g/m2) given either i.v. (n=17 BBSO, n=8+BSO) or by aortic infusion (n=19 BBSO, n=28+BSO).
A dose escalation of NAC was performed in the rat.
The toxicity of NAC was determined when infused for bone marrow protection.

For another series, the system named is rats. The experiment in a line: Blood counts after chemotherapy with or without NAC by left carotid aortic infusion (Example 1). The format is in vivo, rat. The text has this: The rats were set up for drug administration by pushing a catheter forward past the junction of the external and internal carotid arteries (toward the aorta), and temporarily sealing off the internal carotid for good measure so nothing goes to the brain (left carotid aortic infusion method). In patients where entry is via the femoral artery and the catheter is threaded through the aorta to get to the brain in the first place, one would just pull the catheter back to the aorta to do the NAC infusion.
Rats were treated with carboplatin (200 mg/m^2), melphalan (10 mg/m^2) and etoposide phosphate (100 mg/m^2). In the NAC animals, NAC was infused with the left carotid aortic infusion method immediately after the chemotherapeutic agents, at concentrations ranging from 400–1200 mg/M^2. White blood cells (wbc) and platelets (plt) were counted at baseline before the experiment and at 6 and 9–11 days after treatment with the chemotherapeutic agents. […] Counts are in 1000s per μl blood. […] The lack of white blood cell effect was not repeated as there were significant effects shown below.
The data in table 2 show additional results. […] White blood cells (wbc) and platelets (plt) were counted at baseline before the experiment and at 6 and 9 days after treatment with the chemotherapeutic agents.

The subject of series [3] is B.5 LX-1 cells. Put plainly: In situ TUNEL staining for DNA fragmentation. It counts as cell-based. The following applies: melphalan 10 μg/ml, N-acetylcysteine 1000 μg/ml. The method, then: as §1, §2

On to `CC(=O)N[C@@H](CS)C(=O)O` [NAC, N-acetylcysteine], for which the “effect on BSO-enhanced taxol cytotoxicity” value in the series on B.5 LX-1 cells [1] is listed as “completely reversed”. For the same compound, the “effect on cisplatin- or carboplatin-induced caspase activity” value in series [2] is on record as “no reduction in caspase enzymatic activity could be detected”. For the same compound, the “effect on melphalan-induced Caspase-2 activity” value in series [2] (melphalan 10 μg/ml, N-acetylcysteine 1000 μg/ml) is listed as “reduced”. Further, the mortality and toxicity result in the series on rat (1200 mg/kg by aortic infusion 30 minutes prior to chemotherapy, without BSO, 12 animals) was “no mortality nor any evidence of toxicity”. Besides, the bone marrow protection result in the series with rat (140–800 mg/kg i.v. immediately after chemotherapy, n=4) is recorded as “no detectable bone marrow protection”. The toxic doses entry in the series with rat (dose escalation, n=3) is on record as “above 1200 mg/kg”. For the same compound, the “mortality by route of administration” value with rat (i.v. versus aortic infusion, Kaplan-Meier, P=0.0014) is “i.v. administration significantly more toxic than aortic infusion”. Moreover, the toxicity result with rat (rat, in vivo, 1200 mg/kg) is “no toxicity”. The “platelet recovery from chemotherapy” value in the series with rats was “recovered from chemotherapy faster”. In addition, the “effect on melphalan-induced TUNEL staining” value in the series on B.5 LX-1 cells [3] was “reduced”.
